Broadly, the IC50 is the concentration that gives 50% inhibition. For orientation: Cmax means the highest concentration seen after dosing. Broadly, the AUC(0-t) is exposure summed from dosing to a finite time, without extrapolation to infinity. High values mean high exposure, low ones low exposure.

Data set [1] has as its system Plasmodium falciparum. Put plainly: Antimalarial activity against asexual blood stage wild-type Plasmodium falciparum 3D7 assessed as parasite growth inhibition incubated for 72 hrs by SYBR Green I staining based fluorescence analysis. The class given is functional, organism-based. The conditions noted are these: 3D7, 72 h.
For data set [2], the system named is Plasmodium falciparum. Put plainly: Antimalarial activity against early stage (II) Plasmodium falciparum NF54 gametocytes transfected with p230p-Luc assessed as reduction in gametocyte viability incubated for 48 hrs by luciferase reporter gene based bioluminescence assay. Type of data set: functional, organism-based. The conditions noted are these: NF54, 48 h. (A reporter such as luciferase makes a cellular process visible.)

For data set [3], the target named is T1, Protein deacetylase HDAC6 (Homo sapiens, UniProt Q9UBN7).
T1 sequence (Q9UBN7 whole entry): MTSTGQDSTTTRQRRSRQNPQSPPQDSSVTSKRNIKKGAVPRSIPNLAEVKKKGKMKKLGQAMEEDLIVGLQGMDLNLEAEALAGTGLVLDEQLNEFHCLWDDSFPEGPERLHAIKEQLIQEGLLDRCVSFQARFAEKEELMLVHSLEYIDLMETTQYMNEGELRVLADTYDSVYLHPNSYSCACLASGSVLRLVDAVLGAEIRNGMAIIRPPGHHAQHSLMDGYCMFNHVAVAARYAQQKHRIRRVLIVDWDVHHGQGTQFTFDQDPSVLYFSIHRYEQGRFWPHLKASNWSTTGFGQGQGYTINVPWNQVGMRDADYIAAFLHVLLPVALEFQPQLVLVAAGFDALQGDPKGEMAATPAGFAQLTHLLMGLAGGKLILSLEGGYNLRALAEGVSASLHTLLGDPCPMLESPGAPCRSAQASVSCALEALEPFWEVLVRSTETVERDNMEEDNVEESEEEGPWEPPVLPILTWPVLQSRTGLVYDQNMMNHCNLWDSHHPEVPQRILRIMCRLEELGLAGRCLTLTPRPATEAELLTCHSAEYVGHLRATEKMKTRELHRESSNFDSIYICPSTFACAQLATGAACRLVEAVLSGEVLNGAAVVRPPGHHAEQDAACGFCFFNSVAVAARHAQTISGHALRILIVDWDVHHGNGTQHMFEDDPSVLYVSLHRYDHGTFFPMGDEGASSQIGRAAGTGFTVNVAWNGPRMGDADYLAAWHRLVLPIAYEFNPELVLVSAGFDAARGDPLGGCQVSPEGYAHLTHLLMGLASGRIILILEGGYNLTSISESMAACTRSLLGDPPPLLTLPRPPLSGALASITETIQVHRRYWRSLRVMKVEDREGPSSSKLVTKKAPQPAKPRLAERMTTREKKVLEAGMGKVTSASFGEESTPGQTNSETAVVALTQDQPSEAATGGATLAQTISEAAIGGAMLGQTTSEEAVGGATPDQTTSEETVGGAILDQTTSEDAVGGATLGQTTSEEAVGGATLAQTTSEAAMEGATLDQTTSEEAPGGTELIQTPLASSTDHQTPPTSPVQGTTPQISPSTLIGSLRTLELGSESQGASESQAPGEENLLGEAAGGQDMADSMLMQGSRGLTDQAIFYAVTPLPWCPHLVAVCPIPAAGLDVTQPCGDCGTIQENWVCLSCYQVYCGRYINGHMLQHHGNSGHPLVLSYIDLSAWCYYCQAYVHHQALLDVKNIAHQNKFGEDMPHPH
Put plainly: Inhibition of recombinant human full length N-terminal GST tagged HDAC6 (1 to 1215 residues) expressed in baculovirus-infected Sf9 cells using Ac-peptide as substrate incubated for 4 hrs.

Data set [4] deals with T2, Histone deacetylase 1 (Homo sapiens, UniProt Q13547). Briefly: Potency index, ratio of test compound IC50 to Quisinostat IC50 for inhibition of recombinant human full length C-terminal His/FLAG tagged HDAC1 (1 to 482 residues) expressed in baculovirus-infected Sf9 cells using Ac-peptide as substrate incubated for 4 hrs.
The subject of data set [5] is Plasmodium falciparum. Put plainly: Antimalarial activity against late stage (IV) Plasmodium falciparum NF54 gametocytes transfected with p230p-Luc assessed as reduction in gametocyte viability incubated for 48 hrs by luciferase reporter gene based bioluminescence assay. Type of data set: functional, organism-based. The conditions noted are these: NF54, 48 h.
Data set [6] deals with T2, Histone deacetylase 1. Briefly: Inhibition of recombinant human full length C-terminal His/FLAG tagged HDAC1 (1 to 482 residues) expressed in baculovirus-infected Sf9 cells using Ac-peptide as substrate incubated for 4 hrs.
The subject of data set [7] is Plasmodium falciparum. Briefly: In vivo inhibition of C-terminal TY1 fused HDAC1 in Plasmodium falcipuram 3D7 assessed as inhibition of parasite growth by measuring downregulation of RBC invasion-related genes expression level by RNA-seq analysis. The class given is functional, organism-based.
The nature of data set [8]: Cmax in BALB/c mouse at 5 mg/kg, ip measured upto 24 hrs by LC-MS/MS analysis. On the set-up: route intraperitoneal, dose 5 mg/kg, time <=24. The conditions noted are these: in vivo. The class given is ADME, organism-based.
The nature of data set [9]: Metabolic stability in human liver microsomes assessed as half life at […] incubated for 45 mins in presence of NADPH by LC/MS analysis. Type of data set: ADME, Microsome. A general note: Microsomes from liver hold many membrane-bound enzymes, among them those of drug oxidation.
Data set [10] has as its system Plasmodium yoelii. Briefly: Antimalarial activity against blood stage Plasmodium yoelii infected in BALB/c mouse assessed as parasite killing by measuring parasitemia at 30 to 90 mg/kg, ip qd for 5 days and measured on day 60. The class given is functional, organism-based. The note with it: dose 30-90 mg/kg, time 60.0 day.
The subject of data set [11] is Plasmodium falciparum. Put plainly: Antimalarial activity against asexual blood stage chloroquine-resistant Plasmodium falciparum Dd2 assessed as parasite growth inhibition incubated for 72 hrs by SYBR Green I staining based fluorescence analysis. The class given is functional, organism-based. The note with it: Dd2, 72 h.
Data set [12] can be described thus: AUC (0 to last) in BALB/c mouse at 5 mg/kg, ip measured after upto 24 hrs by LC-MS/MS analysis. Type of data set: ADME, organism-based. Further details: route intraperitoneal, dose 5 mg/kg, time <=24. The note with it: in vivo.
Data set [13] deals with T3, Histone deacetylase 8 (Homo sapiens, UniProt Q9BY41).
T3 sequence (Q9BY41 whole entry): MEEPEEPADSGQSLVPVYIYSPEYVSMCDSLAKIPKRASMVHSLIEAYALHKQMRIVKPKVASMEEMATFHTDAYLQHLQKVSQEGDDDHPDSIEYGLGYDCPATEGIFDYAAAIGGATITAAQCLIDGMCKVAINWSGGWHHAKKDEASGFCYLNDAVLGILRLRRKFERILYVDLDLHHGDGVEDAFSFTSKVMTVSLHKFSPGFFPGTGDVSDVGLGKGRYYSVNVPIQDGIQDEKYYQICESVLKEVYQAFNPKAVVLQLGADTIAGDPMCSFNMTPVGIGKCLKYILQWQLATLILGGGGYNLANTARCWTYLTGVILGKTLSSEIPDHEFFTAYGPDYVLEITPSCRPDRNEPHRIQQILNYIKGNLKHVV
Put plainly: Inhibition of recombinant human full length C-terminal His-tagged HDAC8 expressed in baculovirus-infected Sf9 insect cells using Ac-peptide as substrate incubated for 4 hrs followed by trypsin addition and further incubated for 2 hrs.

Data set [14] is described as follows: Apparent elimination half life in BALB/c mouse at 5 mg/kg, ip measured after upto 24 hrs by LC-MS/MS analysis. The conditions noted are these: in vivo, read-out: betat1/2(app) (converted). Type of data set: ADME, organism-based.
In data set [15] the test system is Plasmodium falciparum. Briefly: In vivo inhibition of C-terminal glmS fused HDAC1 in Plasmodium falcipuram 3D7 assessed as inhibition of parasite growth by measuring downregulation of RBC invasion-related genes expression level by RNA-seq analysis. Type of data set: functional, organism-based.
Data set [16] concerns the target T4, Histone deacetylase 8 (Homo sapiens) (UniProt Q9BY41).
T4 sequence (whole entry): T3 sequence (Q9BY41 whole entry)
Briefly: Potency index, ratio of test compound IC50 to Quisinostat IC50 for inhibition of recombinant human full length C-terminal His-tagged HDAC8 expressed in baculovirus-infected Sf9 insect cells using Ac-peptide as substrate incubated for 4 hrs followed by trypsin addition and further incubated for 2 hrs.

SMILES strings stand for the structures. Calls of active or inactive are those of the source. No cut-off for these calls is given here.

T2 sequence (Q13547 whole entry, the tested form may be a part): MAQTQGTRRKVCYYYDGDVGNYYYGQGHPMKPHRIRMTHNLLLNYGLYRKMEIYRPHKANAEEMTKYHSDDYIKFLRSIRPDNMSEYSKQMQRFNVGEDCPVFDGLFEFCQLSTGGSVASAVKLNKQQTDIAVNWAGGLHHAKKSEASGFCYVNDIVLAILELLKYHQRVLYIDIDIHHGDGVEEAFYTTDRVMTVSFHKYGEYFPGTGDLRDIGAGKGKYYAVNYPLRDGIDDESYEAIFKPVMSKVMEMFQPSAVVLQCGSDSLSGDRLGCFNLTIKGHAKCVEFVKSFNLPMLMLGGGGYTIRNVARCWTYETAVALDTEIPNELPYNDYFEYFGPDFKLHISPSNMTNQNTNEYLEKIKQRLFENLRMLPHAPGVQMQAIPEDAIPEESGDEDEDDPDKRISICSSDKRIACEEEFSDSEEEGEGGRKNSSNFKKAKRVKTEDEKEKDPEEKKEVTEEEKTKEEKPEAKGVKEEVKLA

Consider `Cl.Cn1cc(CN2CC3(CCN(c4ncc(C(=O)NO)cn4)C3)C2)c2ccc(C#N)cc21`, for which the IC50 turned out to be 1.26 nM in data set [1]; 15.4 nM in [2]; 85.5 nM in data set [3]; 12.4 nM in data set [5]; 2.2 nM in data set [6]; 1.61 nM in [11]. Besides, the 50% inhibitory concentration (IC50) in data set [13] came to 29.9 nM. Also, the Ratio IC50 in data set [4] and in [16] was 3 each time. In addition, the inhibition entry in data set [7] and in [15] was “Active” in each case. Besides, the Cmax in [8] turned out to be 539 ng/mL. The half-life in [9] was greater than 120 min; in data set [14] it was 54.6 min. In addition, the outcome in data set [10] was Active. For the same molecule, the AUC(0-t) at 24 h in data set [12] was 638 ng·h/mL.
